# Test results from ChEMBL document CHEMBL4402592, “Targeting Endoplasmic Reticulum α-Glucosidase I with a Single-Dose Iminosugar Treatment Protects against Lethal Influenza and Dengue Virus Infections” (J Med Chem, 2020).
# Active and inactive are the calls of the source. No cut-off for these calls is given here.
# Test system: Influenza A virus
# Assay: Antiviral activity against Influenza A virus (A/PA/10/2010 (H3N2)) infected in BALB/c mouse assessed as increase in animal survival rate at 10 mg/kg, po administered via gavage starting at 8 hrs post infection and continuing BID for 6 days
# Assay type: functional, organism-based
smiles,measurement,value
CCOC(=O)C1=C[C@@H](OC(CC)CC)[C@H](NC(C)=O)[C@@H](N)C1,Activity,Active
